Laboratory results published in US8338337B2, “Substituted pyridines having a herbicidal effect” (BASF SE, priority 2008, dated 2012).

How the values were obtained:
AMARE = assay: greenhouse pre-emergence herbicidal test; assay type: in vivo, Amaranthus retroflexus; details: 0.5 kg/ha, scale 0 to 100
Excerpt: The seeds of the test plants were sown separately for each species. For the pre-emergence treatment, the active compounds, which had been suspended or emulsified in water, were applied directly after sowing by means of finely distributing nozzles. The containers were irrigated gently to promote germination and growth and subsequently covered with transparent plastic hoods until the plants had rooted. This cover caused uniform germination of the test plants, unless this has been impaired by the active compounds. Depending on the species, the plants were kept at 10-25° C. or 20-35° C. The test period extended over 2 to 4 weeks. During this time, the plants were tended, and their response to the individual treatments was evaluated. Evaluation was carried out using a scale from 0 to 100. 100 means no emergence of the plants, or complete destruction of at least the aerial moieties, and 0 means no damage, or normal course of growth. A good herbicidal activity is given at values of at least 70 and a very good herbicidal activity is given at values of at least 85. [table]

ABUTH = assay: greenhouse post-emergence herbicidal test; assay type: in vivo, Abutilon theophrasti; details: 3.0 kg/ha, scale 0 to 100
Excerpt: The seeds of the test plants were sown separately for each species. For the post-emergence treatment, the test plants were first grown to a height of 3 to 15 cm, depending on the plant habit, and then treated with the active compounds which had been suspended or emulsified in water. For this purpose, the test plants were either sown directly and grown in the same containers, or they were first grown separately as seedlings and transplanted into the test containers a few days prior to treatment. Depending on the species, the plants were kept at 10-25° C. or 20-35° C. The test period extended over 2 to 4 weeks. During this time, the plants were tended, and their response to the individual treatments was evaluated. Evaluation was carried out using a scale from 0 to 100. 100 means no emergence of the plants, or complete destruction of at least the aerial moieties, and 0 means no damage, or normal course of growth. A good herbicidal activity is given at values of at least 70 and a very good herbicidal activity is given at values of at least 85. [table]

O=c1oc2cccnc2c(O)c1-c1cc(C(F)(F)F)ccc1C(F)(F)F [I-35]
herbicidal activity against AMARE (AMARE): very good (a very good herbicidal activity is given at values of at least 85)

O=c1oc2ccc(O)nc2c(O)c1-c1ccccc1C(F)(F)F [I-23]
herbicidal activity against ABUTH (ABUTH): good (A good herbicidal activity is given at values of at least 70)
